Test results from patent US6495537B1, “Method for inhibition of photocarcinogenesis or photoimmunosuppression using niacin” (University of Kentucky Research Foundation, priority 1998, dated 2002).
Read-outs that look alike come from different tables or passages of the source.

Columns and labels:
[1] = for Body Weight: mean; for Food Consumed: mean (SD)
Experimental: (§1) Groups of 25 mice each received the basal diet which consisted of the American Institute of Nutrition 76A rodent diet containing 10% corn oil and 30 mg niacin per kilogram diet, supplemented with 0, 0.1, 0.5, or 1.0% niacin (Dyets Inc. Bethlehem, Pa.). All diets were pelleted (Dyets Inc.) without heat or steam and stored under refrigeration for less than 10 weeks. Animals were fed ad libitum and given fresh diet three times per week for three weeks before UV treatments began, and throughout the study. Niacin intakes were calculated from the diet consumed. Animals were supplied with sterilized water ad libitum.
Niacin ingestion was calculated from diet consumption recorded on 50% of the animals of each group.

UVM12 tumor cells = details: 32 days after tumor challenge, 0% niacin 91.6, unirradiated control 21.9
Experimental: (§2) The mice were exposed to UV radiation after three weeks of oral niacin administration. The animals were shaved dorsally with animal clippers each week. The filter tops, food, and water bottles were removed from the microisolators while mice were exposed to UV radiation emitted by banks of six FS40 Westinghouse fluorescent sun lamps for 30 min per day, five days per week. This UV regimen continued for 22 weeks in the carcinogenesis experiments, and for 11 weeks in the passive transfer assay experiments. The cages were systemically rotated during the study to compensate for any differences in flux at different positions under the lamps. The FS40 lamps emit a continuous spectrum from 270 to 390 nm with peak emission at 313 nm. About 75% of the energy output is in the wavelength range of 280-340 nm with about 23% in the 340-390 nm range. The total UVB radiation dose was approximately 1.41×10^6 Jm^−2 in the carcinogenesis experiments, and about […] in the passive transfer experiments, as measured with a UVX Digital Radiometer with a UVX-31 sensor (Ultraviolet Products, San Gabriel, Calif.).
(§3) Differences in primary tumor incidence between the experimental groups were analyzed by the Wilcoxon rank sum test. […] For the NAD assay, the Q test was first applied to the data to determine whether questionable values should be rejected. This test was conducted at the 95% confidence level. The data were then analyzed using the MIXED procedure in the statistical analysis program SAS 6.11. […] In this manner, it was possible to first account for differences and variability in duplicate or triplicate samples from the same mouse before the differences between each mouse in each group was compared. This procedure resulting in more precise group means than if each single value carried equal weight. Least-squares means for each group were calculated, and a multiple comparison between these means was made after applying a Tukey-Kramer adjustment for the p-values.

skin NAD = system: skin NAD
Experimental: as §3

UV-induced skin tumors = details: for number of tumors per mouse: 26.5 weeks after first UV treatment, basal diet 0.72; for skin tumor incidence: UV-irradiated mice, 26.5 weeks after first UV exposure, unsupplemented 68%
Experimental: Six-week-old specific-pathogen-free female BALB/cAnNTacfBR (H-2^d) mice were purchased from Taconic Laboratory Animals (Germantown, N.Y.) and quarantined from two weeks before treatment. Animals were housed in microisolators under barrier conditions with a 12:12-hour light-dark cycle at 20+/−2° C. (SD).
as §1, §2, §3
Groups of 25 mice each were fed the AIN76A rodent diet containing 10% corn oil and 30 mg niacin per kilogram diet, supplemented with 0, 0.1, 0.5, or 1.0% niacin. After three weeks of this diet, dorsally shaved mice were exposed to UV radiation for 30 min per day, five days per week for 22 weeks.

[2] = diet supplemented with 0.1% niacin

In the case of `O=C(O)c1cccnc1` [niacin], the “body weights of UV-irradiated mice, with or without supplemental niacin” value ([1]; 0.1, 0.5 or 1.0% niacin diets vs basal diet) is reported as “similar”, the “Body Weight” value ([1]; +UV +0.1% niacin diet) is reported as 18.2 grams and the “Food Consumed” value ([1]; +UV +0.1% niacin diet) is reported as 2.47 (0.54) g/mouse/day. The “Body Weight” value ([1]; +UV +0.5% niacin diet) was 18.07 grams, the “Food Consumed” value ([1]; +UV +0.5% niacin diet) was 2.77 (0.66) g/mouse/day and the “Body Weight” value ([1]; +UV +1% niacin diet) was 18.55 grams. For the same compound, the “Food Consumed” value ([1]; +UV +1% niacin diet) was 2.88 (0.60) g/mouse/day, the mean tumor size (UVM12 tumor cells; recipients of splenocytes from UVB-irradiated donors on 0.1% niacin) was 79.8(+/−11.5) sq mm and the mean tumor size (UVM12 tumor cells; recipients of splenocytes from UVB-irradiated donors on 0.5% niacin) was 41.9 (+/−11.7) sq mm. The mean tumor size (UVM12 tumor cells; recipients of splenocytes from UVB-irradiated donors on 1.0% niacin) was 13.2(+/−4.1) sq mm, the “skin NAD content vs UV-irradiated mice receiving no additional niacin” value (skin NAD; 0.5% niacin supplementation, p<0.0001 dorsal skin, p=0.0114 ventral skin) was “significantly higher skin NAD content” and the “skin NAD content vs UV-irradiated mice receiving no additional niacin” value (skin NAD; 1.0% niacin supplementation, p=0.0025 dorsal skin, p=0.0017 ventral skin) was “significantly higher skin NAD content”. The “number of tumors per mouse” value (UV-induced skin tumors; [2]) was 0.6%, the skin tumor incidence (UV-induced skin tumors; [2]) was 60% and the “number of tumors per mouse” value (UV-induced skin tumors; diet supplemented with 0.5% niacin) was 0.48%. The skin tumor incidence (UV-induced skin tumors; diet supplemented with 0.5% niacin, p=0.0257) was 48%, the “number of tumors per mouse” value (UV-induced skin tumors; diet supplemented with 1.0% niacin) was 0.4% and the skin tumor incidence (UV-induced skin tumors; diet supplemented with 1.0% niacin, p=0.0257) was 28%.
